Biological target: T1, HDAC6 enzyme (Homo sapiens, UniProt Q9UBN7)
T1 construct: transducing full length HDAC6 gene into Sf-9 insect cells; GST; purchased SignalChem; host or cells: Sf-9 insect cells
T1 sequence (Q9UBN7 1-1215): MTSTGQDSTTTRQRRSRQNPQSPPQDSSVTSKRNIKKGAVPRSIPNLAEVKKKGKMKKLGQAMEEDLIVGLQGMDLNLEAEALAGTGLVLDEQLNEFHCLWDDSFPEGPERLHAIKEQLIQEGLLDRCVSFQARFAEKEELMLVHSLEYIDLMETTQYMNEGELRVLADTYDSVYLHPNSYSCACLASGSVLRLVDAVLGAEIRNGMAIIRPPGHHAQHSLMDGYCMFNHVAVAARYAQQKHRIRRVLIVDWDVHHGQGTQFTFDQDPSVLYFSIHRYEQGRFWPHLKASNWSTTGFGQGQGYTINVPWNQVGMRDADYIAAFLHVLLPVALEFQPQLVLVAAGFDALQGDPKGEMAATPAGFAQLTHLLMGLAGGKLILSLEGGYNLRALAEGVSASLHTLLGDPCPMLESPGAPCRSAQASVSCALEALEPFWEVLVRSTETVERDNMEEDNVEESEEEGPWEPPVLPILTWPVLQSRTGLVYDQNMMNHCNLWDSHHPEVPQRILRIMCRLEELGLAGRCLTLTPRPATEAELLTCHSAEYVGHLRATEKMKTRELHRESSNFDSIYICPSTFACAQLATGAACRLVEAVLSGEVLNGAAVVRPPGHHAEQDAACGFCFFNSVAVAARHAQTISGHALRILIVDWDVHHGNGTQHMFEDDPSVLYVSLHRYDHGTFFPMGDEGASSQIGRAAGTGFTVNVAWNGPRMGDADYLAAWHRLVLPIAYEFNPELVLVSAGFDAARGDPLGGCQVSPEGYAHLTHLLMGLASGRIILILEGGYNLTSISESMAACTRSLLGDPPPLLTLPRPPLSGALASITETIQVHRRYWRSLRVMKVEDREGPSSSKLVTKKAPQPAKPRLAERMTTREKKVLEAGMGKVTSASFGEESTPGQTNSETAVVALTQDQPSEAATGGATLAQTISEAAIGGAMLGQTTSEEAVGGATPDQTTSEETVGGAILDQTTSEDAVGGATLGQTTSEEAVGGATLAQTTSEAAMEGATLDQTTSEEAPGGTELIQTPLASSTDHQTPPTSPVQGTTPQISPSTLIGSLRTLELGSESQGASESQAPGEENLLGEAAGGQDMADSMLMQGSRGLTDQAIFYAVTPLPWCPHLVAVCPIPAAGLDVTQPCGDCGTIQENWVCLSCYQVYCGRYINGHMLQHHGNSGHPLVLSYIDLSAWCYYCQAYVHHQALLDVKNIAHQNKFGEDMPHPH
Assay: HDAC6 enzyme inhibitory activity (HDAC-Glo I/II Assay kit)
Assay type: biochemical
Conditions: 10 μM; wells without enzyme = 100% inhibition
Outline: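 Inhibition is calculated as relative activity, taking luminescence in enzyme-free wells as complete inhibition. The enzyme, full-length and GST-purified after Sf-9 expression, was exposed to compound for 60 min at room temperature before a 20 min HDAC-Glo reaction.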

| SMILES | HDAC6 inhibitory rate (%) (10 μM) |
| --- | --- |
| O=C1c2cc(-c3nnc(C(F)F)o3)ccc2CN1N1CCC(F)(F)CC1c1ccccc1 (stereo not drawn) [Example 555, 6-(5-(difluoromethyl)-1,3,4-oxadiazol-2-yl)-2-(4,4-difluoro-2-phenylpiperidin-1-yl)isoindolin-1-one (optical isomer)] | 100 |

Same assay, conditions: 10 μM; wells without enzyme = 100% inhibition; read-out: HDAC6 inhibitory rate (%) (10 μM)

| SMILES | inhibition at 10 µM [%] |
| --- | --- |
| O=C1c2cc(-c3nnc(C(F)F)o3)cnc2CN1Cc1cccc(OC(F)F)c1 [Example 395, 6-(3-(difluoro-methoxy)benzyl)-3-(5-(difluoro-methyl)-1,3,4-oxadiazol-2-yl)-6,7-dihydro-5H-pyrrolo [3,4-b]pyridin-5-one] | 99 |
| O=C1c2cc(-c3nnc(C(F)F)o3)cc(F)c2CN1[C@@H]1CCOC[C@H]1NC(=O)C1(C(F)(F)F)CCC1 [Example 212, N-((3S,4R)-4-(6-(5-(difluoromethyl)-1,3,4-oxadiazol-2-yl)-4-fluoro-1-oxo-1,3-dihydro-2H-isoindol-2-yl)tetrahydro-2H-pyran-3-yl)-1-(trifluoromethyl)cyclobutanecarboxamide] | 101 |
| O=C1c2cc(-c3nnc(C(F)F)o3)ccc2CN1[C@@H]1CCCC[C@H]1NC(=O)C1(c2ccccc2)COC1 [Example 90, N-((1R,2R)-2-(6-(5-(difluoromethyl)-1,3,4-oxadiazol-2-yl)-1-oxo-1,3-dihydro-2H-isoindol-2-yl)cyclohexyl)-3-phenyloxetane-3-carboxamide] | 100 |
| O=C1c2cc(-c3nnc(C(F)F)o3)cnc2CN1Cc1cc2ccccn2n1 [Example 457, 3-(5-(difluoro-methyl)-1,3,4-oxadiazol-2-yl)-6-(pyrazolo [1,5-a]pyridin-2-ylmethyl)-6,7-dihydro-5H-pyrrolo [3,4-b] pyridin-5-one] | 97 |
| O=C1c2cc(-c3nnc(C(F)F)o3)cnc2CN1[C@@H]1COCC[C@H]1Oc1cc(F)cc(F)c1 [Example 650, 1,5-anhydro-2,4-dideoxy-2-(3-(5-(difluoromethyl)-1,3,4-oxadiazol-2-yl)-5-oxo-5,7-dihydro-6H-pyrrolo[3,4-b]pyridin-6-yl)-3-O-(3,5-difluorophenyl)-threo-pentitol (optical isomer)] | 99 |
| O=C1c2cc(-c3nnc(C(F)F)o3)ccc2CN1[C@@H]1CCCC[C@H]1NC(=O)C1(C(F)(F)F)CCC1 [Example 24, N-((1R,2R)-2-(6-(5-(difluoromethyl)-1,3,4-oxadiazol-2-yl)-1-oxo-1,3-dihydro-2H-isoindol-2-yl)cyclohexyl)-1-(trifluoromethyl)cyclobutanecarboxamide] | 98 |
| O=C1c2cc(-c3nnc(C(F)F)o3)ccc2CN1c1ccc(Cl)cc1-c1cnn(C(F)F)c1 [Example 405, 2-(4-chloro-2-(1-(difluoro-methyl)-1H-pyrazol-4-yl)phenyl)-6-(5-(difluoro-methyl)-1,3,4-oxadiazol-2-yl) isoindolin-1-one] | 101 |
| CCC(F)(F)C(=O)N[C@@H]1CCCC[C@H]1N1Cc2ccc(-c3nnc(C(F)F)o3)cc2C1=O [Example 67, N-((1R,2R)-2-(6-(5-(difluoromethyl)-1,3,4-oxadiazol-2-yl)-1-oxo-1,3-dihydro-2H-isoindol-2-yl)cyclohexyl)-2,2-difluorobutanamide] | 100 |
| CC(C)(CF)OC(=O)N[C@H]1[C@H](N2Cc3ncc(-c4nnc(C(F)F)o4)cc3C2=O)CCCC1(F)F [Example 607, 1-fluoro-2-methylpropan-2-yl ((1S,6R)-6-(3-(5-(difluoromethyl)-1,3,4-oxadiazol-2-yl)-5-oxo-5,7-dihydro-6H-pyrrolo[3,4-b]pyridin-6-yl)2,2-difluorocyclohexyl)carbamate] | 99 |
| CC(C)(C)OC(=O)NC1CC=C(c2cc(F)ccc2N2Cc3ccc(-c4nnc(C(F)F)o4)cc3C2=O)CC1 (stereo not drawn) [Example 520, tert-butyl (4-(2-(6-(5-(difluoromethyl)-1,3,4-oxadiazol-2-yl)-1-oxo-1,3-dihydro-2H-isoindol-2-yl)-5-fluorophenyl)cyclohex-3-en-1-yl)carbamate] | 99 |
| O=C(N[C@@H]1CCCC[C@H]1N1Cc2ccc(-c3nnc(C(F)F)o3)cc2C1=O)C1CC1 [Example 11, N-((1R,2R)-2-(6-(5-(difluoromethyl)-1,3,4-oxadiazol-2-yl)-1-oxo-1,3-dihydro-2H-isoindol-2-yl)cyclohexyl)cyclopropanecarboxamide] | 98 |
| N#Cc1ccc(N2Cc3ccc(-c4nnc(C(F)F)o4)cc3C2=O)c(-c2ccccc2)c1 [Example 443, 6-(6-(5-(difluoro-methyl)-1,3,4-oxadiazol-2-yl)-1-oxo-1,3-dihydro-2H-isoindol-2-yl) biphenyl-3-carbonitrile] | 100 |
| O=C1c2cc(-c3nnc(C(F)F)o3)cnc2CN1[C@@H]1CCCC[C@H]1NCC(F)(F)F [Example 367, 3-(5-(difluoromethyl)-1,3,4-oxadiazol-2-yl)-6-((1R,2R)-2-((2,2,2-trifluoroethyl)amino)-cyclohexyl)-6,7-dihydro-5H-pyrrolo[3,4-b]pyridin-5-one] | 101 |
| O=C1c2cc(-c3nnc(C(F)F)o3)ccc2CN1N1CCC(F)(F)CC1c1ccc(F)cn1 (stereo not drawn) [Example 595, 2-(4,4-difluoro-2-(5-fluoropyridin-2-yl)piperidin-1-yl)-6-(5-(difluoromethyl)-1,3,4-oxadiazol-2-yl)isoindolin-1-one] | 100 |
| Cn1cc(C2=CCC(NC(=O)OC(C)(C)C)CC2)c(N2Cc3ccc(-c4nnc(C(F)F)o4)cc3C2=O)n1 (stereo not drawn) [Example 519, tert-butyl (4-(3-(6-(5-(difluoromethyl)-1,3,4-oxadiazol-2-yl)-1-oxo-1,3-dihydro-2H-isoindol-2-yl)-1-methyl-1H-pyrazol-4-yl)cyclohex-3-en-1-yl)carbamate] | 99 |
| O=C1c2cc(-c3nnc(C(F)F)o3)ccc2CN1[C@@H]1CCCN(C(=O)C(F)F)[C@@H]1c1ccc(F)cc1 (racemic) [Example 624, 2-((2RS,3RS)-1-(difluoroacetyl)-2-(4-fluorophenyl)piperidin-3-yl)-6-(5-(difluoromethyl)-1,3,4-oxadiazol-2-yl)isoindolin-1-one] | 100 |
| O=C1CCCN1[C@@H]1CCCC[C@H]1N1Cc2c(F)cc(-c3nnc(C(F)F)o3)cc2C1=O [Example 124, 6-(5-(difluoromethyl)-1,3,4-oxadiazol-2-yl)-4-fluoro-2-((1R,2R)-2-(2-oxopyrrolidin-1-yl)cyclohexyl)isoindolin-1-one] | 99 |
| Cn1nc(C(F)(F)F)cc1-c1c(Cl)cccc1N1Cc2ccc(-c3nnc(C(F)F)o3)cc2C1=O [Example 426, 2-(3-chloro-2-(1-methyl-3-(trifluoro-methyl)-1H-pyrazol-5-yl)phenyl)-6-(5-(difluoro-methyl)-1,3,4-oxadiazol-2-yl) isoindolin-1-one] | 99 |
| O=C(N[C@@H]1CCCC[C@H]1N1Cc2ccc(-c3nnc(C(F)F)o3)cc2C1=O)OCC(F)F [Example 131, 2,2-difluoroethyl ((1R,2R)-2-(6-(5-(difluoromethyl)-1,3,4-oxadiazol-2-yl)-1-oxo-1,3-dihydro-2H-isoindol-2-yl)cyclohexyl)carbamate] | 99 |
| O=C1c2cc(-c3nnc(C(F)F)o3)ccc2CN1c1ccccc1-c1ccc(Cl)cc1 [Example 282, 2-(4′-chlorobiphenyl-2-yl)-6-(5-(difluoromethyl)-1,3,4-oxadiazol-2-yl)isoindolin-1-one] | 98 |

— patent publication US10435399B2, “HDAC6 inhibitory heterocyclic compound” (TAKEDA PHARMACEUTICAL COMPANY LIMITED, priority 2017, dated 2019)
